{"source": "patent US20060167068A1", "about": "“Method of treating self-injurious behavior with glutamate modulating agents” (priority 2005, published 2006)", "experiment": "Case reports: glutamate modulating agent added to medication of patients with borderline personality disorder and self-injurious behavior", "type": "in vivo, human", "description": "We describe two patients with borderline personality disorder and prominent cutting behaviors refractory to psychopharmacologic interventions.\nPatient 1 was a person with a history of post-traumatic stress disorder and borderline personality disorder. […] They were previously treated with intensive psychotherapy, cognitive behavioral therapy, and pharmacotherapy. Medication management included treatment trials, either alone or in combination, of the following medications: CELEXA (citraloprom HBr), PROZAC (fluoxetine HCl), REMERON (mirtazapine), ZYPREXA (olanzapine), KLONOPIN (clonazepam), LAMICTAL (lamotrigine), RISPERDAL (risperidone), Abilify (aripiprazole), EFFEXOR (venlafaxine HCl), XANAX (alprazolam), WELLBUTRIN (bubroprion HCl), and ATIVAN (lorazepam). Medications provided little relief and their cutting behaviors continued on a daily to weekly basis. Riluzole, a glutamate modulating agent, was added to their medication regimen which consisted of LEXAPRO (escitalopram) 20 mg a day and KLONOPIN 1 mg at bedtime. Riluzole was dosed at 50 mg twice a day. […] This attenuation in their self-injurious behaviors occurred between week 2 and 3 of treatment with riluzole.\nDespite the beneficial effects of riluzole with regard to the cutting/self-injurious behaviors (as well as cravings to cut), Patient 1 requested to stop the riluzole secondary to the sedation. Within 1 week of stopping the riluzole, their desire and cravings to cut returned. They were then treated with N-Acetyl Cysteine (NAC), another agent thought to modulate glutamatergic function.\nPatient 2 was a person with a long history of borderline personality disorder, major depression, obsessive-compulsive disorder and generalized anxiety disorder. […] These self-injurious behaviors and the cravings to cut worsened under times of stress. They were previously treated with intensive psychotherapy, cognitive behavioral therapy, and pharmacotherapy. Medication management included treatment trials, either alone or in combination, of the following medications: EFFEXOR, ZOLOFT (sertaline HCl), TOPAMAX (topirimate), ATIVAN (lorazepam), trazodone, ABILIFY AND NEURONTIN (gabapentin). Riluzole, a glutamate modulating agent, was added to their medication regimen which consisted of ZOLOFT 200 mg each day, RISPERDAL (risperidone) 2 mg at bedtime, KLONOPIN 1 mg three times per day and PROVIGIL (modafinil) 200 mg a day. Riluzole was dosed at 50 mg twice a day. […] Similar to the first case, the cessation in self-injurious behaviors occurred between week 2 and 3 of treatment with riluzole.", "key": {"[1]": {"conditions": "Patient 1, riluzole 50 mg twice a day"}}, "data": [{"compound": "CC(=O)N[C@@H](CS)C(=O)O", "note": "[NAC, N-Acetyl Cysteine]", "values": [{"measurement": "time of treatment until desire to cut remitted", "setting": "Patient 1, NAC after stopping riluzole", "value": "≤ 2", "unit": "weeks"}, {"measurement": "period without any self-injurious behaviors", "setting": "Patient 1, on NAC", "value": "over three months"}, {"measurement": "self-injurious cravings (self-report)", "setting": "Patient 1, on NAC, desire to cut not completely eradicated as while on riluzole", "value": "significantly attenuated"}]}, {"compound": "Nc1nc2ccc(OC(F)(F)F)cc2s1", "note": "[riluzole, Riluzole]", "values": [{"measurement": "time after stopping treatment until desire and cravings to cut returned", "setting": "Patient 1, after stopping riluzole", "value": "≤ 1", "unit": "week"}, {"measurement": "adverse effect while on treatment", "setting": "[1]", "value": "significant sedation"}, {"measurement": "time on treatment without a single episode or desire to harm themself", "setting": "[1]", "value": "approximately eight weeks"}, {"measurement": "cravings to cut / self-injurious behaviors (patient report)", "setting": "Patient 1, riluzole 50 mg twice a day added to LEXAPRO 20 mg a day and KLONOPIN 1 mg at bedtime", "value": "complete cessation of cravings to cut"}, {"measurement": "period without any self-injurious behaviors", "setting": "Patient 2, riluzole 50 mg twice a day", "value": "over six months"}, {"measurement": "desire to engage in self-injurious behaviors (patient report)", "setting": "Patient 2, riluzole 50 mg twice a day added to ZOLOFT 200 mg, RISPERDAL 2 mg, KLONOPIN 1 mg three times per day, PROVIGIL 200 mg", "value": "complete cessation"}, {"measurement": "self-injurious behavior", "setting": "both cases (two patients with borderline personality disorder and cutting behaviors refractory to psychopharmacologic interventions), after initiating riluzole", "value": "significantly decreased"}]}]}
